# Measured values from patent US10508107B2, “Morpholine derivative” (Hoffmann-La Roche Inc., priority 2016, dated 2019).
# Where two headings read alike, the source gives them in different places.
# Legend:
# hERG potassium channel = hERG potassium channel (Homo sapiens (Human), UniProt Q12809); experiment: hERG whole-cell patch-clamp in stably transfected CHO cells; type: cell-based; conditions: for selectivity ratio: pH 7.4, hERG IC20 / hTAAR1 EC50, read-out: hERG selectivity ratio versus hTAAR1 EC50; for IC50: patch-clamp, CHO cells, 36±1° C.
# hERG potassium channel, sequence (Q12809 whole entry): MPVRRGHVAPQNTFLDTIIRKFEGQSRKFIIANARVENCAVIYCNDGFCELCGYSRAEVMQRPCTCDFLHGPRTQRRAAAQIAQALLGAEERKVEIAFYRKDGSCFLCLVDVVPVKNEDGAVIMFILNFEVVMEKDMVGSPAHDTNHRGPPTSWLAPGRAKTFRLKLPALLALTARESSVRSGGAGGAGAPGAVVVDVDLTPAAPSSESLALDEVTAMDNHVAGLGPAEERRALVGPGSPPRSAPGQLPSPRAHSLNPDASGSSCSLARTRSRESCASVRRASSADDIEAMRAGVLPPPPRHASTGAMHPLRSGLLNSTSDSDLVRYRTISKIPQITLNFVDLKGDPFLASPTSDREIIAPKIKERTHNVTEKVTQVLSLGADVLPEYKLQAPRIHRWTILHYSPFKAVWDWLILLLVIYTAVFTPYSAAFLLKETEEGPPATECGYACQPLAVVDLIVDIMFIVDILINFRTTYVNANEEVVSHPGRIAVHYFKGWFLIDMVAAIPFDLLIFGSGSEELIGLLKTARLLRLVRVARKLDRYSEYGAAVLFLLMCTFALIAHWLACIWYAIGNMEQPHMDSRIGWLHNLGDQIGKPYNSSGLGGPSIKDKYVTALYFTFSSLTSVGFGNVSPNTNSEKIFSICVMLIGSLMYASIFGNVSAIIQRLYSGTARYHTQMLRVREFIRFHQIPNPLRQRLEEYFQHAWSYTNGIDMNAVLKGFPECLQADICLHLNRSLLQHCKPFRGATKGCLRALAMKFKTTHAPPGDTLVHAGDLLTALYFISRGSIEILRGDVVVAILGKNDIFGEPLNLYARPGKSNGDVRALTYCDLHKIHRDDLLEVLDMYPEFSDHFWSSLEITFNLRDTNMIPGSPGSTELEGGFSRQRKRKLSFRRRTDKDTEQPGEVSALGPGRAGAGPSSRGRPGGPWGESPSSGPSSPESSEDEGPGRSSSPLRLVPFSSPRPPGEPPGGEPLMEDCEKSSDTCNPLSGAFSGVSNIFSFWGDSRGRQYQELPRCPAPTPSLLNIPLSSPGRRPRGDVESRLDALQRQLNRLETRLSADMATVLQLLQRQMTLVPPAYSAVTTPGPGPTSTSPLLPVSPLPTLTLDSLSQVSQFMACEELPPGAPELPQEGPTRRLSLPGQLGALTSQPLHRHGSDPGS
# Procedure: The whole-cell patch-clamp technique was used to investigate the effects of the test items on hERG (human-ether-a-go-go related gene) potassium channels in stably transfected CHO cells near physiological temperature (36±1° C.). The effects of compounds on hERG K^+-current parameters were evaluated at 4 concentrations (0.3-3-30-300 μM) in at least 3 CHO cells stably expressing the hERG channel. For electrophysiological measurements cells were seeded onto 35 mm sterile culture dishes containing 2 ml culture medium without Hygromycin B. Cells were cultivated at a density that enabled single cells (without visible connections to neighbouring cells) to be measured. Cells were incubated at 37° C. in a humidified atmosphere with 5% CO2 (rel. humidity about 95%). The cells were continuously maintained in and passaged in sterile culture flasks containing nutrient mixture F-12 (DMEM/F-12 with L-Glutamine) supplemented with 10% foetal bovine serum and 10% penicillin/streptomycin solution. […] The 35 mm culture dishes upon which cells were seeded at a density allowing single cells to be recorded were placed on the dish holder of the microscope and continuously perfused (at approximately 1 ml/min) with the bath solution (sodium chloride 150 mM, potassium chloride 4 mM, calcium chloride 1.2 mM, magnesium chloride 1 mM, HEPES 10 mM, pH (NaOH) 7.4) at near physiological temperature (36±1° C.). After formation of a Gigaohm seal between the patch electrodes and individual hERG stably transfected CHO cells (pipette resistance range: 2.0 MΩ-7.0 Mω; seal resistance range: >1 Gω) the cell membrane across the pipette tip was ruptured to assure electrical access to the cell interior (whole-cell patch-configuration). In case the quality of the seal was poor, the process of seal formation was repeated with a different cell and a new pipette. […] This voltage protocol was run at least 10 times at intervals of 10 s. If current density was judged to be too low for measurement, another cell was recorded. […] During wash-in of the test item the voltage protocol indicated above was run continuously again at 10 s intervals until the steady-state level of block was reached. The four test item concentrations of the compound were applied sequentially to 3 cells in a cumulative manner. […] Based on the IC50 value the IC20 was estimated. Each concentration of the test item was analyzed in three experiments (n=3).
# human TAAR1 = human TAAR1 (Homo sapiens (Human), UniProt Q96RJ0); experiment: cAMP functional assay in HEK293 cells expressing human TAAR1; type: cell-based; conditions: for hTAAR1 efficacy*: % agonist activity, β-phenylethylamine = 100% agonism; for EC50: cAMP, HEK293 cells expressing human TAAR1, read-out: hTAAR1 EC50
# human TAAR1, sequence (Q96RJ0 whole entry): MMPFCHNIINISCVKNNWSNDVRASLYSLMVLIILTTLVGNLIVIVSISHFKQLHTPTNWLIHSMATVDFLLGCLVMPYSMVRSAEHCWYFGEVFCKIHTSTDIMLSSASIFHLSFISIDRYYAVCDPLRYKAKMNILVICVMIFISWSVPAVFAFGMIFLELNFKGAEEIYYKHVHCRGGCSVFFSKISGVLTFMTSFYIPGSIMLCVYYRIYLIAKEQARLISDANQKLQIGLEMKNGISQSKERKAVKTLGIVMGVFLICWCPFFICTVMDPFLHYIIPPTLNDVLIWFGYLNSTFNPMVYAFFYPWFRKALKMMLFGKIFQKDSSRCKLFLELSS
# Procedure: For the construction of expression plasmids the coding sequences of human TAAR 1 were amplified from genomic DNA essentially as described by Lindemann et al.[14]. The Expand High Fidelity PCR System (Roche Diagnostics) was used with 1.5 mM Mg^2+ and purified PCR products were cloned into pCR2.1-TOPO cloning vector (Invitrogen) following the instructions of the manufacturer. PCR products were subcloned into the pIRESneo2 vector (BD Clontech, Palo Alto, Calif.), and expression vectors were sequence verified before introduction in cell lines.
# HEK293 cells (ATCC # CRL-1573) were cultured essentially as described by Lindemann et al. (2005). For the generation of stably transfected cell lines HEK293 cells were transfected with the pIRESneo2 expression plasmids containing the TAAR coding sequences (described above) with Lipofectamine 2000 (Invitrogen) according to the instructions of the manufacturer, and 24 hrs post transfection the culture medium was supplemented with 1 mg/ml G418 (Sigma, Buchs, Switzerland). After a culture period of about 10 d clones were isolated, expanded and tested for responsiveness to trace amines (all compounds purchased from Sigma) with the cAMP Biotrak Enzyme immunoassay (EIA) System (Amersham) following the non-acetylation EIA procedure provided by the manufacturer.
# cAMP measurements were performed as described previously (Revel et al., Proc. Natl. Acad. Sci. USA 2011, 108, 8485-8490). In brief, cells that expressed human TAAR1 were plated on 96-well plates (BIOCOAT 6640; Becton Dickinson, Allschwil, Switzerland) and incubated for 20 h at 37° C. Prior to stimulation of the cells with a broad concentration range of agonists for 30 min at 37° C., the cells were washed with PBS and preincubated with PBS that contained 1 mM 3-isobutyl-1-methylxanthine for 10 min at 37° C. and 5% CO2. Stimulation with 0.2% DMSO was set as the basal level, and the effect of 30 μM β-PEA was set as the maximal response. Subsequently, the cells were lysed, and cAMP assays were performed according to the manufacturer's instructions (cAMP kit; Upstate/Millipore, Schaffhausen, Switzerland). Finally, the plates were read with a luminometer (1420 Multilabel counter; PerkinElmer, Schwerzenbach, Switzerland), and the amount of cAMP was calculated. The results were obtained from at least three independent experiments. Experiments were run in duplicate or triplicate. EC50 values are presented as mean ±standard deviation (in μM).
# human DAT = human DAT (Homo sapiens (Human), UniProt Q01959); experiment: Binding to dopamine transporter (DAT) in vitro, [3H]-WIN35,428 SPA; conditions: for Ki: [3H]-WIN35,428 radioligand; for DAT selectivity ratio versus hTAAR1 EC50: DAT Ki / hTAAR1 EC50
# human DAT, sequence (Q01959 whole entry): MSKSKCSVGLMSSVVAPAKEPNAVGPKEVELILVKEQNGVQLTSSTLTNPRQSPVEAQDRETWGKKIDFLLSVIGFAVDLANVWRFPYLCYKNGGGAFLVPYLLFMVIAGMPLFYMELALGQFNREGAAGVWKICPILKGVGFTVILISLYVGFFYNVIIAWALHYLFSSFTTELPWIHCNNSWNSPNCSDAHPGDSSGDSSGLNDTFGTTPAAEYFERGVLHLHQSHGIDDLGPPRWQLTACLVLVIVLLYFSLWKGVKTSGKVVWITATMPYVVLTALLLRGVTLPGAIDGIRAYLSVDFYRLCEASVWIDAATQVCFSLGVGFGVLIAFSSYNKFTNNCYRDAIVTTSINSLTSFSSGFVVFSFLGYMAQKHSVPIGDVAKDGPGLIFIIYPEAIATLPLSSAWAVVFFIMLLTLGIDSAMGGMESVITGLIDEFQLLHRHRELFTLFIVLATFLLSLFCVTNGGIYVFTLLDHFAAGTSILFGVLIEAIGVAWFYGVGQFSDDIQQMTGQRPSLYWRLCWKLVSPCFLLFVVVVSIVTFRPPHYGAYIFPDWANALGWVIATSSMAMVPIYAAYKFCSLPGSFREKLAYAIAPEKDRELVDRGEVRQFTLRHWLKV
# Procedure: Binding to dopamine transporter (DAT) in vitro. Human embryonic kidney (HEK) 293 cells (Invitrogen, Zug, Switzerland) stably transfected with human DAT were cultured. The cells were collected and washed three times with phosphate-buffered saline (PBS). The pellets were frozen at −80° C. The pellets were then resuspended in 400 ml of 20 mM HEPES-NaOH, pH 7.4, that contained 10 mM EDTA at 4° C. After homogenization with a Polytron (Kinematica, Lucerne,
# Switzerland) at 10000 rotations per minute (rpm) for 15 s, the homogenates were centrifuged at 48000×g for 30 min at 4° C. Aliquots of the membrane stocks were frozen at −80° C. All assays were performed at least three times. The test compounds were diluted in […] of binding buffer (252 mM NaCl, 5.4 mM KCl, 20 mM Na2HPO4, 3.52 mM KH2PO4, pH 7.4) and 10 point dilution curves were made and transferred to 96-well white polystyrene assay plates (Sigma-Aldrich, Buchs, Switzerland). […] Twenty microliters of binding buffer alone in the assay plate defined the total binding, whereas binding in the presence of 10 μM indatraline defined nonspecific binding. Frozen DAT membrane stocks were thawed and resuspended to a concentration of approximately 0.04 mg protein/ml binding buffer (1:1 diluted in H2O) using a polytron tissue homogenizer. The membrane homogenates (40 μg/ml) were then lightly mixed for 5-30 min with polyvinyl toluene […] wheat germ agglutinin-coated scintillation proximity assay (WGASPA; Amersham Biosciences) beads at 7.7 mg beads/ml homogenate. One hundred thirty microliters of the membrane/bead mixture were added to each well of the assay plate that contained radioligand and test compounds (final volume in each well, 200 μl) to start the assay, which was incubated for approximately 2 h at room temperature with agitation. The assay plates were then counted in the PVT SPA counting mode of a Packard Topcount. […] Non-linear regression was used to fit the data to sigmoid curves and determine IC50 values for binding and uptake. Ki values for binding and uptake were calculated using the following Cheng-Prusoff equation: Ki=IC50/(1+[S]/Km).
# [1] = estimated based on the IC50 value
# [2] = human, CHO cells stably expressing hERG
# [3] = human, CHO cells stably expressing hERG, pH 7.4, estimated based on the IC50 value
structure (smiles),measurement,setting,value
"O=C(Nc1ccc([C@H]2CNCCO2)cc1)c1ccc(OCC(F)(F)F)nc1 [Example 3, N-[4-[(2S)-Morpholin-2-yl]phenyl]-6-(2,2,2-trifluoroethoxy)pyridine-3-carboxamide]",Ratio hERG IC20/hTAAR1 EC50,hERG potassium channel,52
same,IC20,hERG potassium channel; [1],1.97 µM
same,selectivity ratio,hERG potassium channel; [2],52
same,IC50,hERG potassium channel,9.84 µM
same,hTAAR1 efficacy*,human TAAR1,45%
same,EC50,human TAAR1,0.0377 µM
same,Ratio DAT Ki/hTAAR1 EC50,human DAT,462
same,Ki,human DAT,17.4 µM
"Cc1cc(C(=O)Nc2ccc([C@H]3CNCCO3)cc2)cc(C)n1 [Example 18, 2,6-Dimethyl-N-[4-[(2S)-morpholin-2-yl]phenyl]pyridine-4-carboxamide]",Ratio hERG IC20/hTAAR1 EC50,hERG potassium channel,177
same,IC20,hERG potassium channel; [3],147 µM
same,IC50,hERG potassium channel,712 µM
same,hTAAR1 efficacy*,human TAAR1,63%
same,EC50,human TAAR1; listed as example 18,0.827 µM
same,EC50,human TAAR1,0.827 µM
same,Ratio DAT Ki/hTAAR1 EC50,human DAT,>32
same,Ki,human DAT,> 26.1 µM
"O=C(Nc1ccc([C@H]2CNCCO2)cc1)c1ccc(C(F)(F)F)nc1 [Example 11, N-[4-[(2S)-Morpholin-2-yl]phenyl]-6-(trifluoromethyl)pyridine-3-carboxamide]",hTAAR1 efficacy*,human TAAR1,46%
same,EC50,human TAAR1; listed as example 11,0.203 µM
same,EC50,human TAAR1,0.203 µM
same,Ki,human DAT,2.33 µM
"Cc1cc(C(=O)Nc2ccc([C@H]3CNCCO3)cc2)ccn1 [Example 17, 2-Methyl-N-[4-[(2S)-morpholin-2-yl]phenyl]pyridine-4-carboxamide]",Ratio hERG IC20/hTAAR1 EC50,hERG potassium channel,193
same,IC20,hERG potassium channel; [3],130 µM
same,IC50,hERG potassium channel,518 µM
same,hTAAR1 efficacy*,human TAAR1,45%
same,EC50,human TAAR1; listed as example 17,0.673 µM
same,EC50,human TAAR1,0.673 µM
same,Ratio DAT Ki/hTAAR1 EC50,human DAT,15
same,DAT selectivity ratio versus hTAAR1 EC50,human DAT,15 fold
same,Ki,human DAT,10.3 µM
"CCc1[nH]nc(C(=O)Nc2ccc([C@@H]3CNCCO3)cc2)c1C [Example 2, 5-Ethyl-4-methyl-N-[4-[(2R)-morpholin-2-yl]phenyl]-1H-pyrazole-3-carboxamide]",hTAAR1 efficacy*,human TAAR1,38%
"O=C(Nc1ccc([C@H]2CNCCO2)cc1)c1cnc(Cl)c(Cl)c1 [Example 9, 5,6-Dichloro-N-[4-[(2S)-morpholin-2-yl]phenyl]pyridine-3-carboxamide]",hTAAR1 efficacy*,human TAAR1,32%
same,EC50,human TAAR1; listed as example 9,0.144 µM
same,EC50,human TAAR1,0.144 µM
same,Ki,human DAT,0.48 µM
"O=C(Nc1ccc([C@H]2CNCCO2)cc1)c1cncc(Cl)c1 [Example 13, 5-Chloro-N-[4-[(2S)-morpholin-2-yl]phenyl]pyridine-3-carboxamide]",Ratio hERG IC20/hTAAR1 EC50,hERG potassium channel,23
same,IC20,hERG potassium channel; [1],9.14 µM
same,selectivity ratio,hERG potassium channel; [2],23
same,IC50,hERG potassium channel,66 µM
same,hTAAR1 efficacy*,human TAAR1,37%
same,EC50,human TAAR1; listed as example 13,0.405 µM
same,EC50,human TAAR1,0.405 µM
same,Ratio DAT Ki/hTAAR1 EC50,human DAT,3
same,DAT selectivity ratio versus hTAAR1 EC50,human DAT,3 fold
same,Ki,human DAT,1.31 µM
"O=C(Nc1ccc([C@H]2CNCCO2)cc1)c1ccc(Cl)cn1 [Example 12, 5-Chloro-N-[4-[(2S)-morpholin-2-yl]phenyl]pyridine-2-carboxamide]",Ratio hERG IC20/hTAAR1 EC50,hERG potassium channel,15
same,IC20,hERG potassium channel; [3],3.21 µM
same,selectivity ratio,hERG potassium channel; [2],15
same,IC50,hERG potassium channel,14.3 µM
same,hTAAR1 efficacy*,human TAAR1,40%
same,EC50,human TAAR1; listed as example 12,0.212 µM
same,EC50,human TAAR1,0.212 µM
same,Ratio DAT Ki/hTAAR1 EC50,human DAT,8
same,DAT selectivity ratio versus hTAAR1 EC50,human DAT,8 fold
same,Ki,human DAT,1.78 µM
"O=C(Nc1ccc([C@H]2CNCCO2)cc1)c1ccc(Cl)nc1 [Example 4, 6-Chloro-N-[4-[(2S)-morpholin-2-yl]phenyl]pyridine-3-carboxamide]",Ratio hERG IC20/hTAAR1 EC50,hERG potassium channel,201
same,IC20,hERG potassium channel; [3],12.4 µM
same,IC50,hERG potassium channel,49.7 µM
same,hTAAR1 efficacy*,human TAAR1,49%
same,EC50,human TAAR1,0.0619 µM
same,Ratio DAT Ki/hTAAR1 EC50,human DAT,40
same,DAT selectivity ratio versus hTAAR1 EC50,human DAT,40 fold
same,Ki,human DAT,2.5 µM
"O=C(Nc1ccc([C@H]2CNCCO2)cc1)c1ccn(-c2ccccc2)n1 [Example 20, N-[4-[(2S)-Morpholin-2-yl]phenyl]-1-phenylpyrazole-3-carboxamide]",Ratio hERG IC20/hTAAR1 EC50,hERG potassium channel,1
same,IC20,hERG potassium channel; [1],2.49 µM
same,selectivity ratio,hERG potassium channel; [2],1
same,IC50,hERG potassium channel,10.8 µM
same,hTAAR1 efficacy*,human TAAR1,59%
same,EC50,human TAAR1,2.48 µM
same,Ratio DAT Ki/hTAAR1 EC50,human DAT,>11
same,Ki,human DAT,> 26.1 µM
"N#Cc1ccc(C(=O)Nc2ccc([C@H]3CNCCO3)cc2)cn1 [Example 10, 6-Cyano-N-[4-[(2S)-morpholin-2-yl]phenyl]pyridine-3-carboxamide]",Ratio hERG IC20/hTAAR1 EC50,hERG potassium channel,31
same,IC20,hERG potassium channel; [1],5.78 µM
same,selectivity ratio,hERG potassium channel; [2],31
same,IC50,hERG potassium channel,31.7 µM
same,hTAAR1 efficacy*,human TAAR1,38%
same,EC50,human TAAR1; listed as example 10,0.184 µM
same,EC50,human TAAR1,0.184 µM
same,Ratio DAT Ki/hTAAR1 EC50,human DAT,62
same,Ki,human DAT,11.3 µM
"O=C(Nc1ccc([C@H]2CNCCO2)cc1)c1cnc(-c2ccccc2)s1 [Example 6, N-[4-[(2S)-Morpholin-2-yl]phenyl]-2-phenyl-1,3-thiazole-5-carboxamide]",hTAAR1 efficacy*,human TAAR1,30%
same,EC50,human TAAR1,0.08 µM
same,Ki,human DAT,5.93 µM
same,Ki,human DAT; listed as example 6,5.9 µM
